Earlier results, collected in US20160128986A1, “METHODS AND COMPOSITIONS RELATED TO THE USE OF LOW HLB SURFACTANTS IN THE PRODUCTION OF SYNTHETIC NANOCARRIERS COMPRISING A RAPALOG” (Selecta Biosciences, Inc., priority 2014, published 2016).

Conditions: publicly available information

| Molecule | HLB of Surfactant |
| --- | --- |
| CCCCCCCCCCCCCCCC(=O)O [Palmitic Acid] | 3.2 |
| CCCCCCCCO[C@@H]1O[C@H](CO)[C@@H](O)[C@H](O)[C@H]1O [octyl β-D-glucopyranoside, Octyl β-D-glucopyranoside] | 12 |
| Polyethylene glycol hexadecyl ether [Brij 52] | 5 |
| Polyethylene glycol oleyl ether [Brij 93] | 4 |
| Polysorbate 80 | 15 |
| Sorbitan monolaurate [SPAN 20] | 8.6 |
| Sorbitan monooleate [SPAN 80] | 4.3 |
| Sorbitan monopalmitate [SPAN 40] | 6.7 |
| Sorbitan stearate [SPAN 60] | 4.7 |
